Assay: gradient 5% acetonitrile 3 min, to 50% in 2 min, to 85% in 15 min, held 3 min, 100 µL/min
Conditions: column: Zorbax Extend-C18 2.1 x 50 mm; eluents: water / acetonitrile, 0.1% formic acid
Method in brief: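 The system's dead and dwell volumes were 40 μL and 900 μL, with a Zorbax Extend-C18 column (2.1 × 50 mm, 1.8 μm) run at 100 μL/min in water and acetonitrile containing 0.1% formic acid each. Pure standards were analyzed in mixtures of ~100 molecules by HPLC–quadrupole time-of-flight mass spectrometry in positive and negative ionization mode. Retention time was assigned from computationally picked, manually inspected adduct peaks.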

| SMILES | RP-LC retention time |
| --- | --- |
| CCOC(=O)c1noc2nc(C)nc(NCc3ccc(Cl)cc3)c12 | 1160 s |
| O=C(c1ccc(N2CCOCC2)nn1)N1CCN(c2ncccn2)CC1 | 586 s |
| CC(C)n1c(=O)c2ccccc2n(Cc2nc(-c3ccc(Br)cc3)no2)c1=O | 1230 s |
| Cc1ccc(NC(=O)Cn2c(C)nc3onc(C)c3c2=O)c(Cl)c1 | 835 s |
| COCC(=O)Nc1nc(-c2ccc3c(c2)NC(=O)CO3)c(C)s1 | 705 s |
| COc1ccc(OC)c(S(=O)(=O)N2CCCC(C(=O)NC(C)C)C2)c1 (stereo not given) | 714 s |
| CCC1CN2C=NC(N3CCN(C(=O)Nc4ccc(OC)c(Cl)c4)CC3)=CC2=N1 (stereo not given) | 807 s |
| Cc1noc(-c2cccc(OC3CN(C(=O)NCCc4ccccc4)C3)c2)n1 | 879 s |
| CCOCCCNC(=O)c1cc2c(n(-c3ccc(C(C)C)cc3)c1=O)CCCC2=O | 952 s |
| Cc1cccc(-c2nc(-c3ccc(-n4cccn4)nc3)no2)c1 | 1330 s |
| Cc1ccc(F)cc1NC(=O)c1cc2n(n1)CCCC2 | 949 s |
| O=C(NCc1ccccc1Cl)C(=O)NCC1(CO)CC1 | 670 s |
| COC(=O)c1sccc1NC(=O)Cn1c(C)cc(C)c(-c2nc(-c3cccc(Cl)c3)no2)c1=O | 1170 s |
| O=C(Cn1c(=O)ccc2cc(S(=O)(=O)N3CCCC3)ccc21)N1CCN(c2ccccn2)CC1 | 596 s |
| Cc1ccc(CNC(=O)c2ccc(CN3CCN(C4CCCC4)C(=O)C3=O)cc2)cc1C | 834 s |
| CCOc1ccccc1-c1nc(Cc2nc(-c3ccc(OC)cc3)oc2C)no1 | 1160 s |
| Cc1ccc(CNC(=O)CN2CCN(Cc3ccc(F)cc3)C2=O)o1 | 766 s |
| Cn1nc2n(c1=O)CCN(C(=O)c1cscn1)CC2 | 560 s |
| c1ccc(OCc2nc(-c3ccc(-n4ccnc4)nc3)no2)cc1 | 689 s |
| O=C(NC1CCCCCC1)c1cc(C2CC2)[nH]n1 | 792 s |
| COc1cc(NC(=O)N2CCN(c3cc(-c4ccccc4)ncn3)CC2)cc(OC)c1 | 649 s |

| SMILES | RP-LC retention time |
| --- | --- |
| Cc1ccc(S(=O)(=O)N2CCN(C(=O)c3ccccc3Cl)CC2)cc1C | 669 s |
| CCOc1ccc(CN2CC(N(Cc3ccncc3)S(C)(=O)=O)C2)cc1 | 560 s |
| O=C(Nc1ccccc1F)c1cccn1Cc1noc(-c2ccccc2)n1 | 1010 s |
| O=c1c2cnn(-c3ccc(Br)cc3)c2ncn1Cc1nc(-c2ccccc2)no1 | 1150 s |
| Cc1ccc(Cl)cc1N1C(=O)CN(S(C)(=O)=O)CC1(C)C(=O)NC1CCCCCC1 (stereo not given) | 942 s |
| COc1ccc(-n2ccn3cc(-c4ccc5c(c4)OCO5)nc3c2=O)cc1Cl | 833 s |
| CCOc1ccccc1-c1noc(CN2C(=O)COc3ccccc32)n1 | 963 s |
| O=c1ccc(-c2ccc(F)cc2)nn1CCc1nc(-c2ccc(Br)cc2)no1 | 1110 s |
| Cc1ccc(CNC(=O)N2CCC(n3c(-c4ccco4)nc4cccnc43)C2)cc1 (stereo not given) | 762 s |
| COc1ccc(Cl)cc1NC(=O)Nc1c(-c2ccncc2)nc2ccccn12 | 642 s |
| O=C(NCCc1c[nH]c2ccccc12)c1cc(-c2ccc(F)cc2)c[nH]1 | 859 s |
| COc1ccccc1N1CCN(C(=O)c2cccc([N+](=O)[O-])c2)CC1 | 786 s |
| Cc1ncoc1C(=O)N(C)C1CCc2nn(CC3CC3)c(=O)n2CC1 (stereo not given) | 594 s |
| CC(=O)Nc1cc([N+](=O)[O-])c(N(C)S(=O)(=O)c2ccccc2)c2ccccc12 | 781 s |
| CCN1CCN(c2ccc(-c3ccc(OC)c(S(=O)(=O)N4CCOCC4)c3)nn2)CC1 | 585 s |
| CCc1cc(N2CCN(C(=O)COc3ccc(OC)cc3)CC2)nc2nncn12 | 602 s |
| COc1cc(OC)cc(-c2nc(-c3nnn(-c4ccccc4)c3C)no2)c1 | 1070 s |
| O=C(Nc1ccccc1Br)c1ccc(OC(F)F)cc1 | 914 s |
| Cn1cc(CCN2CCN(S(=O)(=O)c3cccc(Cl)c3)CC2)c2cccnc21 | 650 s |
| CC(C)NC(=O)c1ccc(OCC2CCN(C(=O)c3ccc(C(F)(F)F)cc3)CC2)cc1 | 935 s |
| Cc1cc(Cl)ccc1S(=O)(=O)N1CCC2(CCC(CN3CCN(C)CC3)O2)CC1 (stereo not given) | 642 s |

| SMILES | RP-LC retention time |
| --- | --- |
| COC(=O)C(C)NC(=O)NCc1cccn1Cc1ccc(Cl)cc1 (stereo not given) | 832 s |
| CCOC(=O)c1cc(S(=O)(=O)N2CCCC2C(=O)N2CCCCCC2)cn1C (stereo not given) | 822 s |
| Cc1nc2cc(-c3noc(Cc4cccc(C(F)(F)F)c4)n3)ccc2o1 | 1080 s |
| O=S(=O)(c1ccc2nncn2c1)N(Cc1ccc(F)cc1)c1ccccc1 | 846 s |
| CC(C)OCCCNC(=O)c1ccc2c(=O)n(-c3ccccc3)c(N3CCCC3)nc2c1 | 777 s |
| Cc1cc(C)n(-c2ccnc(N3CCc4ccccc43)n2)n1 | 1340 s |
| CCNC(=O)N1CCCC(c2cccc(C(=O)NCCCN3CCCCC3)c2)C1 (stereo not given) | 596 s |
| Cc1ccccc1-c1noc(-c2nn(-c3cccc(F)c3)ccc2=O)n1 | 941 s |
| Cc1cc(NC(=O)CN2C(=O)NC(c3ccccc3Cl)C3=C2COC3=O)ccc1Br (stereo not given) | 887 s |
| Cc1ccc(S(=O)(=O)N2CCC3(CC2)NCCN=C3NCc2ccc(Cl)cc2)cc1 | 742 s |
| O=C(CCn1nnc2cc(-c3noc(-c4ccc(F)c(F)c4)n3)ccc21)N1CCCC1 | 946 s |
| O=C(Nc1ccc(F)c(Cl)c1)c1c(O)c2cccnc2n(Cc2ccccc2)c1=O | 1230 s |
| CC1CCN(CC2CCN(S(=O)(=O)c3ccc(F)c(Cl)c3)CC2)CC1 | 688 s |
| O=C(NC1CCc2ccccc21)C1CCN(c2ncnc3c2oc2ccccc23)CC1 (stereo not given) | 778 s |
| O=C(NCc1ccc2c(c1)OCO2)C1CCN(C(=O)c2ccccc2F)CC1 | 719 s |
| Cc1ccc(C)c(NC(=O)CCc2cccc3[nH]ccc23)c1 | 879 s |
| O=C(c1cc2ccccc2[nH]1)N1CCC(Cn2c(C(F)(F)F)nc3ccccc32)CC1 | 881 s |
| CCc1nc2cc(-c3noc(Cc4ccc(NC(C)=O)cc4)n3)ccc2o1 | 916 s |
| COc1cccc(Nc2c(-c3ccc(SC)cc3)nc3cnccn23)c1 | 912 s |
| Cc1cc(C)c(S(=O)(=O)N2CCC(n3cnc4c(C)cccc4c3=O)CC2)cc1C | 1120 s |

Now from value to molecule:

| RP-LC retention time | SMILES |
| --- | --- |
| 729 s | Cc1ccccc1Nc1c(-c2ccc(N3CCOCC3)cc2)nc2c(C)cccn12 |
| 906 s | COc1ccc(SCCCC(=O)Nc2cccc(C)c2C)cc1 |
| 645 s | CNC(=O)c1cn(-c2ccc(SCC(=O)Nc3ccc4c(c3)OCCO4)nn2)cn1 |
| 672 s | CC(C)C(=O)Nc1ccc(CCc2nc3ccc(C(=O)NC4CCCCC4)cc3[nH]2)cc1 |
| 750 s | CCOC(=O)c1ccc(NC(=O)c2cc3c(=O)n(CC(C)C)c4ccccc4n3n2)cc1 |
| 658 s | Cc1oc(-c2[nH]ncc2C(=O)N(C)C)cc1S(=O)(=O)Nc1ccccc1F |
| 973 s | CCOC(=O)c1cc(C(=O)OCC)n(CC(=O)c2ccccc2)n1 |
| 801 s | CCC(=O)Nc1ccc(C2(C(=O)N3CCCCCC3)CCC2)cc1 |
| 668 s | CCCN1C(=O)Cc2ccccc2C1C(=O)O (stereo not given) |
| 730 s | Cc1nc(C)c2c(n1)N(CC1CCCCC1)C(=O)CC2 |
| 675 s | Cc1noc(C2CN(C(=O)c3cc4ccccc4[nH]3)C2)n1 |
| 689 s | Cc1cccc(N2CCn3c2nc2c3c(=O)n(CC(=O)O)c(=O)n2C)c1 |
| 668 s | O=C(CCc1c(-c2ccccc2)nc2ccccn12)Nc1ccccc1Cl |
| 637 s | CC(=O)N1c2ccc(S(=O)(=O)N3CCCCCC3)cc2CC1C(=O)NCCN(C)C (stereo not given) |
| 853 s | CCOC(=O)c1c(S(=O)(=O)N2CCC(C(=O)Nc3ccc(OCC)cc3)CC2)c(C)n(C)c1C |
| 634 s | O=C(NCC1CCCO1)NC1CC(=O)N(c2ccc(Cl)cc2)C1 (stereo not given) |
| 709 s | CC(C)Cn1c(CCNC(=O)c2ccc(C#N)cc2)nc2cccnc21 |
| 671 s | CCC(=O)Oc1ccc(N2C(=O)CCC2=O)cc1 |
| 608 s | Cc1nc2c(c(=O)n1CC(=O)NCc1cccs1)CCN(Cc1ccccc1)C2 |
| 1100 s | CCOC(=O)CC1=CC(SCC(=O)N(C)c2ccccc2)=Nc2ccccc2N1 |
| 772 s | NS(=O)(=O)c1ccc(NC(=O)Nc2ccc(F)cc2)cc1 |
| 732 s | COc1ccc(N2CCOCC2)c2sc(NC(=O)N3CCC(C)(O)CC3)nc12 |
| 1020 s | CCC(C)NC(=O)C1CCN(S(=O)(=O)c2cc(-c3noc(C(C)C)n3)sc2C)CC1 (stereo not given) |
| 762 s | CC(=O)c1cccc(NC(=O)Cn2ccc3ccc(-c4nnc(C)o4)cc32)c1 |
| 827 s | COCc1nc(N2CCN(c3ccccc3F)CC2)ncc1C(=O)O |
| 810 s | Cc1ccc(-n2cc(C(=O)NCCCOC(C)C)nn2)cc1 |
| 996 s | CCc1c(C)nc2nc(-c3ccccc3)nn2c1NCc1ccc(C)cc1 |
| 655 s | COc1ccc(NC(=O)c2[nH]c3cc(C)sc3c2CN2CCOCC2)cc1 |
